Values quoted from earlier work, collected in patent US20240261272A1, “LPA1 ANTAGONISTS FOR TREATING INTERSTITIAL LUNG DISEASE” (Bristol-Myers Squibb Company, priority 2022, published 2024).

Legend:
patients with IPF = conditions: cited from earlier work
patients with PPF = conditions: 52-week study period; cited from earlier work

Structure (SMILES) | decline in lung function (in words) (patients with IPF) | progression of lung fibrosis, annual rate of decline in FVC versus placebo (in words) (patients with PPF)
Cc1ccc(=O)n(-c2ccccc2)c1 [pirfenidone] | significantly reduce the decline in lung function | 
COC(=O)c1ccc2c(c1)NC(=O)/C2=C(\Nc1ccc(N(C)C(=O)CN2CCN(C)CC2)cc1)c1ccccc1 [nintedanib] | significantly reduce the decline in lung function | slower progression of lung fibrosis than those who received placebo
